Structures can show the parent of a compound that is named as a salt.
melting point | Compound
215 to 218 °C (dec.) | COc1cccc(CN2CCC(CCCC(=O)c3ccc4c(c3)CCN(Cc3ccccc3)CC4)CC2)c1 (as salt: hydrochloride) [Example 156, 4-[1-[(3-Methoxyphenyl)methyl]-4-piperidinyl]-1-[3-(phenylmethyl)-2,3,4,5-tetrahydro-1H-3-benzazepin-7-yl]-1-butanone Dihydrochloride]
226 to 229 °C (dec.) | O=C(CCCC1CCN(Cc2ccccc2Cl)CC1)c1ccc2c(c1)CCN(Cc1ccccc1)CC2 (as salt: hydrochloride) [Example 178, 4-[1-[(2-Chlorophenyl)methyl]-4-piperidinyl]-1-[3-(phenylmethyl)-2,3,4,5-tetrahydro-1H-3-benzazepin-7-yl]-1-butanone Dihydrochloride]
179 to 187 °C | CC(=O)Nc1cccc(CN2CCC(CCCC(=O)c3ccc4c(c3)CCN(Cc3ccccc3)CC4)CC2)c1 (as salt: hydrochloride) [Example 179, N-[3-[[4-[4-[3-(Phenylmethyl)-2,3,4,5-tetrahydro-1H-3-benzazepin-7-yl]-4-oxobutyl]-1-piperidinyl]methyl]phenyl]acetamide Dihydrochloride]
225 to 228 °C | Cc1ccc(CN2CCc3ccc(C(=O)CCCC4CCN(Cc5ccc(F)cc5)CC4)cc3CC2)cc1 (as salt: hydrochloride) [Example 192, 4-[1-[(4-Fluorophenyl)methyl]-4-piperidinyl]-1-[3-[(4-methylphenyl)methyl]-2,3,4,5-tetrahydro-1H-3-benzazepin-7-yl]-1-butanone Dihydrochloride]
164 to 167 °C | Cc1ccc(CN2CCC(CCCC(=O)c3ccc4c(c3)CCN(Cc3ccccc3[N+](=O)[O-])CC4)CC2)cc1 (as salt: hydrochloride) [Example 198, 4-[1-[(4-Methylphenyl)methyl]-4-piperidinyl]-1-[3-[(2-nitrophenyl)methyl]-2,3,4,5-tetrahydro-1H-3-benzazepin-7-yl]-1-butanone Dihydrochloride]
195 to 198 °C | Cc1ccc(CN2CCC(CCCC(=O)c3ccc4c(c3)CCN(Cc3cccc(Cl)c3)CC4)CC2)cc1 (as salt: hydrochloride) [Example 202, 1-[3-[(3-Chlorophenyl)methyl]-2,3,4,5-tetprahydro-1H-3-benzazepin-7-yl]-4-[1-[(4-methylphenyl)methyl]-4-piperidinyl]-1-butanone Dihydrochloride]
208 to 210 °C | O=C(CCCCC1CCN(Cc2ccccc2)CC1)c1ccc2c(c1)CCN(Cc1ccccc1)CC2 (as salt: hydrochloride) [Example 209, 5-[1-(Phenylmethyl)-4-piperidinyl]-1-[3-(phenylmethyl)-2,3,4,5-tetrahydro-1H-3-benzazepin-7-yl]-1-pentanone Dihydrochloride]
213 to 216 °C (dec.) | Cc1ccccc1CN1CCC(CCCC(=O)c2ccc3c(c2)CCNCC3)CC1 (as salt: hydrochloride) [Example 236, 4-[1-[(2-Methylphenyl)methyl]-4-piperidinyl]-1-(2,3,4,5-tetrahydro-1H-3-benzazepin-7-yl)-1-butanone Dihydrochloride]
211 to 213 °C | CCN(CC)CCN1CCc2ccc(C(=O)CCCC3CCN(Cc4ccccc4C)CC3)cc2CC1 (as salt: hydrochloride) [Example 244, 1-[3-(2-Diethyaminoethyl)-2,3,4,5-tetrahydro-1H-3-benzazepin-7-yl]-4-[1-[(2-methylphenyl)methyl]-4-piperidinyl]-1-butanone Trihydrochloride]
201 to 220 °C (dec.) | Cc1ccccc1CN1CCc2ccc(C(=O)CCCC3CCN(Cc4ccccc4C(N)=O)CC3)cc2CC1 (as salt: hydrochloride) [Example 254, 2-[[4-[4-[3-[(2-Methylphenyl)methyl]-2,3,4,5-tetrahydro-1H-3-benzazepin-7-yl]-4-oxobutyl]-1-piperidinyl]methyl]benzamide Dihydrochloride]
192 to 203 °C (dec.) | Cc1ccccc1CN1CCc2ccc(C(=O)CCCC3CCNCC3)cc2CC1 (as salt: hydrochloride) [Example 255, 1-[3-(2-Methylphenyl)methyl]-2,3,4,5-tetrahydro-1H-3-benzazepin-7-yl]-4-(4-piperidinyl)-1-butanone Dihydrochloride]
186 to 193 °C (dec.) | Cc1ccccc1CN1CCc2ccc(C(=O)CCCC3CCN(Cc4ccccc4C(=O)N4CCN(C)CC4)CC3)cc2CC1 (as salt: hydrochloride) [Example 313, 4-[1-[[2-[(4-methyl-1-pipiperazinyl)carbonyl]phenyl]methyl]-4-piperidinyl]-1-[3[(2-methylphenyl)methyl]-2,3,4,5-tetrahydro-1H-3-benzazepin-7-yl]-1-butanone Trihydrochloride]
168 to 172 °C | Cc1ccccc1CN1CCc2ccc(C(=O)CCCC3CCN(Cc4ccccc4C(=O)N4CCOCC4)CC3)cc2CC1 (as salt: hydrochloride) [Example 314, 1-[3-[(2-Methylphenyl)methyl]-2,3,4,5-tetrahydro-1H-3-benzazepin-7-yl]-4-[1-[[2-(morpholinocarbonyl)phenyl]methyl]-4-piperidinyl]-1-butanone Dihydrochloride]
138 to 144 °C | CC(=O)Nc1ccccc1CN1CCc2ccc(C(=O)CCCC3CCN(Cc4ccccc4Cl)CC3)cc2CC1 (as salt: hydrochloride) [Example 315, N-[2-[[7-[4-[1-[(2-chlorophenyl)methyl]-4-piperidinyl]butanoyl]-2,3,4,5-tetrahydro-1H-3-benzazepin-3-yl]methyl]phenyl]acetamide Dihydrochloride]
155 to 164 °C (dec.) | Nc1ccccc1CN1CCc2ccc(C(=O)CCCC3CCN(Cc4ccccc4Cl)CC3)cc2CC1 (as salt: hydrochloride) [Example 316, 1-[3-[(2-Aminophenyl)methyl]-2,3,4,5-tetrahydro-1H-3-benzazepin-7-yl]-4-[1-[(2-chlorophenyl)methyl]-4-piperidinyl]-1-butanone Trihydrochloride]
150 to 158 °C | O=C(O)c1cccc(CN2CCC(CCCC(=O)c3ccc4c(c3)CCN(Cc3ccccc3)CC4)CC2)c1 (as salt: salt) [Example 158, 3-[[4-[4-[3-(Phenylmethyl)-2,3,4,5-tetrahydro-1H-benzazepin-7-yl]-4-oxobutyl)-1-piperidinyl]methyl]benzoic acid triethylamine Salt]
134 to 137 °C | O=C(CCC1CCNCC1)c1ccc2c(c1)CCN(Cc1ccccc1)CC2 [Example 24, 1-[3-(phenylmethyl)-2,3,4,5-tetrahydro-1H-3-benzazepin-7-yl]-3-(4-piperidinyl)-1-propanone]
157 to 158 °C | CC(=O)N1CCC(CCC(=O)c2ccc3c(c2)CCN3c2ccncc2)CC1 [Example 61, 3-(1-Acetyl-4-piperidinyl)-1-[1-(4-pyridyl)-2,3-dihydroindol-5-yl]-1-propanone]
160 to 161 °C | CC(=O)N1CCC(CCC(=O)c2cc3c4c(c2)CCN4C(=O)CC3)CC1 [Example 66, 8-[3-(1-Acetyl-4-piperidinyl)-1-oxopropyl]-1,2,5,6-tetrahydro-4H-pyrrolo[3,2,1-ij]quinolin-4-one]
130 to 132 °C | CC(=O)N1CCC(CCC(=O)c2ccc3c4c2CCCC4CN3C(C)=O)CC1 (stereo not shown) [Example 67, 3-(1-Acetyl-4-piperidinyl)-1-(1-acetyl-1,2,2a,3,4,5-hexahydrobenz[cd]indol-6-yl)-1-propanone]
153 to 155 °C | CC(=O)N1CCC(CCC(=O)c2ccc3c(c2)CNc2ccccc2CC3)CC1 [Example 69, 3-(1-Acetyl-4-piperidinyl)-1-(5,6,11,12-tetrahydrodibenz[bf]azocin-8-yl)-1-propanone]
94 to 95 °C | CC(=O)N1CCC(CCCC(=O)c2ccc3c(c2)CCN(Cc2ccccc2C)CC3)CC1 [Example 125, 4-(1-Acetyl-4-piperidinyl)-1-[3-[(2-methylphenyl)methyl]-2,3,4,5-tetrahydro-1H-3-benzazepin-7-yl]-1-butanone]
88 to 94 °C | O=C(CCCC1CCN(Cc2cccc(O)c2)CC1)c1ccc2c(c1)CCN(Cc1ccccc1)CC2 [Example 157, 4-[1-[(3-Hydroxyphenyl)methyl]-4-piperidinyl]-1-[3-(phenylmethyl)-2,3,4,5-tetrahydro-1H-3-benzazepin-7-yl]-1-butanone]
165 to 176 °C | O=C(O)c1ccc(CN2CCC(CCCC(=O)c3ccc4c(c3)CCN(Cc3ccccc3)CC4)CC2)cc1 [Example 183, 4-[[4-[4-[3-(Phenylmethyl)-2,3,4,5-tetrahydro-1H-3-benzazepin-7-yl]-4-oxobutyl]-1-piperidinyl]methyl]benzoic Acid]
129 to 132 °C | Cc1ccccc1CN1CCc2ccc(C(=O)CCCC3CCN(Cc4ccccc4C(=O)O)CC3)cc2CC1 [Example 253, 2-[[4-[4-[3-[(2-Methylphenyl)methyl]-2,3,4,5-tetrahydro-1H-3-benzazepin-,7-yl]-4-oxobutyl]-1-piperidinyl]methyl)benzoic Acid]
150 to 152 °C | Cc1ccccc1CN1CCc2ccc(C(=O)CCCC3CCN(Cc4cccc(C(=N)N)c4)CC3)cc2CC1 [Example 260]
103 to 104 °C | N#Cc1ccccc1CN1CCc2ccc(C(=O)CCCC3CCN(Cc4ccccc4Cl)CC3)cc2CC1 [Example 265, 4-[1-[(2-Chlorophenyl)methyl]-4-piperidinyl]-1-[3-[(2-cyanophenyl)methyl]-2,3 4,5-tetrahydro-1H-3-benzazepin-7-yl]-1-butanone]
121 to 122 °C | N#Cc1cccc(CN2CCc3ccc(C(=O)CCCC4CCN(Cc5ccccc5Cl)CC4)cc3CC2)c1 [Example 267, 4-[1-[(2-Chlorophenyl)methyl]-4-piperidinyl]-1-[3-[(3-cyanophenyl)methyl]-2,3,4,5-tetrahydro-1H-3-benzazepin-7-yl]-1-butanone]

— patent US6534496B1, “Thermogenic composition and benzazepine thermogenics” (Takeda Chemical Industries, Inc., priority 1997, dated 2003)
